Assay results published in patent publication US20250002435A1, “ARYLATED FENCHONE DERIVATIVES, COMPOSITIONS COMPRISING THEM, PROCESSES FOR THEIR PREPARATION AND USES THEREOF” (priority 2021, published 2025).
pEC50, pIC50, pKi: −log10 of the molar value. “Also recorded” adds a separate entry of the source. Where two headings read alike, the source gives them in different places.

Key:
[1] = target: mCB1R (Mus musculus (Mouse), UniProt P47746); experiment: [3H]CP-55,940 competition displacement binding, crude membranes from mouse brain; settings: for Ki: read-out: Ki (nM) mCB1R
mCB1R, sequence (P47746 whole entry): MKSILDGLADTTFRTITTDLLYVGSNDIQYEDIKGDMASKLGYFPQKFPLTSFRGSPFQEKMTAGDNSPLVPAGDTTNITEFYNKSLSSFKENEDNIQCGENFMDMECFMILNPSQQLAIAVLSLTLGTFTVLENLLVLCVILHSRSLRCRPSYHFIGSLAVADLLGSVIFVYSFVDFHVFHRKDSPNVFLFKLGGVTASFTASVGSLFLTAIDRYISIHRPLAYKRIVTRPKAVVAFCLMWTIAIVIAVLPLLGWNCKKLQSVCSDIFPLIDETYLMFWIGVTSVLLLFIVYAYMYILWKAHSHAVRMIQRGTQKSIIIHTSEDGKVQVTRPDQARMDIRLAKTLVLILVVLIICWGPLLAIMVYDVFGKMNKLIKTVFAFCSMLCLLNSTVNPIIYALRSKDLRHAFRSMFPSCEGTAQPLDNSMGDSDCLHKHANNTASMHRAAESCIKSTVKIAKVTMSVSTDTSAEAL
Description: (§1) Affinity for Cannabinoid Receptors. The compounds were further characterized using a radioligand binding assay to determine their affinities for CB1R and CB2R based on each test compound's ability to displace the radiolabeled CB1R/CB2R agonist CP-55,940 from membranes prepared from a mouse brain (a source of CB1R) and membranes of cells expressing the human CB2R. […] Therefore, the compounds were assayed using membranes from CHO-K1 cells expressing the human CB2R (hCB2R).
(§2) Membranes from cells expressing human CB2R were purchased from Charles River, (Cat #A308; Ohio, US). Solutions of test compounds ranging from 0.1 nM to 10 mM were prepared in DMSO. The desired amount of membrane preparation was diluted with ice-cold assay buffer (50 mM Tris-HCl, 2.5 mM EDTA, 5 mM MgCl2, 0.1% BSA, pH 7.4) and was vortexed. […] The assays were incubated for 90 minutes at 30° C. and then immediately filtered on WHATMAN GF/B FilterPaper (Fired) using a Brandel M-24R Harvester followed by six washes with ice cold wash buffer (50 mM Tris-HCl, 2.5 mM EDTA, 5 mM MgCl2, 0.1% BSA, pH 7.4). Radioactivity was detected by adding the FilterPaper directly to the ULTIMA GOLD scintillation cocktail (PerkinElmer), incubation at 20° C. for 60 min and then counted using a Tri-Carb 4910TR liquid scintillation counter.

[2] = target: T1, hCB2R (Homo sapiens (Human), UniProt P34972); experiment: [3H]CP-55,940 competition displacement binding, membranes of CHO-K1 cells expressing human CB2R
T1 sequence (P34972 whole entry): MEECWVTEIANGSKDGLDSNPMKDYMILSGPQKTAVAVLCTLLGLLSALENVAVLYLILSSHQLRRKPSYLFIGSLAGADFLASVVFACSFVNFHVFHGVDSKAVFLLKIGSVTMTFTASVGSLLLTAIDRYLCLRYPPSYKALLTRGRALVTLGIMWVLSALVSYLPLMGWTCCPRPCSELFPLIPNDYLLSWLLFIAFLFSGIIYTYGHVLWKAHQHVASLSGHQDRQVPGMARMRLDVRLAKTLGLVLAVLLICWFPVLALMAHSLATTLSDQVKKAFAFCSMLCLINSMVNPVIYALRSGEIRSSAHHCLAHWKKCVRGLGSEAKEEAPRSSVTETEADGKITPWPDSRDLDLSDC
Description: as §1, §2

[3] = target: T1, hCB2R; experiment: [35S]GTPγS binding assay, hCB2R CHO cell membranes; assay type: biochemical; settings: for functional activity at hCB2R (agonist / inverse agonist): [35S]GTPγS binding; for pEC50: [35S]GTPγS binding to hCB2R, two independent experiments in triplicate; for E(max) %: percentage of HU-308 response at 1 μM
Description: Functional Characterization.
The method used for measuring agonist-stimulated binding of [^35S]GTPγS was based on a described protocol. The assays were carried out with GTPγS assay buffer (50 mM Tris HCl (pH 7.4), 0.2 mM EGTA, 9 mM MgCl2, 150 mM NaCl, 1 mg/ml BSA). Briefly, membranes (5 μg protein) were incubated in assay buffer containing 100 μM GDP, 0.05 nM [^35S]GTPγS, test compounds at various concentrations in siliconized glass tubes. Bound ligand was separated from free ligand by vacuum filtration. Nonspecific binding was determined using 10 μM GTPS. Basal binding was assayed in the absence of the ligand and in the presence of GDP.

[4] = displacement of [3H]CP-55,940, NB = No binding detected at concentrations up to 10 μM
[5] = >10 μM = Displacement of radioactive ligand detected at high concentrations competing ligand, read-out: Ki mCB1R

| Compound | Ki ([2]; displacement of [3H]CP-55,940) | Ki [1, 4] | functional activity at hCB2R (agonist / inverse agonist) [3] | also measured |
| --- | --- | --- | --- | --- |
| CCCCCc1ccc(OC)c(C2(O)C3(C)CCC(C3)C2(C)C)c1 (single isomer, unassigned) [Compound 3c, 2-(2′-methoxy-5′-pentylphenyl)-1,3,3-trimethylbicyclo[2.2.1]heptan-2-ol] | – | – | – | Ki [1]: > 10000 nM |
| COc1cc(C)cc(OC)c1C1(O)C2(C)CCC(C2)C1(C)C (single isomer, unassigned) [Compound 1e, 2-(2,6′-dimethoxy-4′-methylphenyl)-1,3,3-trimethylbicyclo[2.2.1]-heptan-2-ol] | – | – | – | Ki [1]: > 10000 nM |
| CCCCCCc1ccc(OC)c(C2(O)C3(C)CCC(C3)C2(C)C)c1OC (single isomer, unassigned) [Compound 2a, 2-(3′-hexyl-2,6′-dimethoxyphenyl)-1,3,3-trimethylbicyclo[2.2.1]heptan-2-ol] | 224 nM | > 10000 nM | – | – |
| CCCCCCC(C)(C)c1cc(OC)c(C2(O)C3(C)CCC(C3)C2(C)C)c(OC)c1F (single isomer, unassigned) [Compound 4c, 2-(3′-fluoro-2,6′-dimethoxy-4′-(2″-methyloctan-2″-yl)phenyl)-1,3,3-trimethyl-bicyclo[2.2.1]heptan-2-ol] | 438 nM | > 10000 nM | – | – |
| CCCCCc1ccc(OC)c(C2(O)C3(C)CCC(C3)C2(C)C)c1 (single isomer, unassigned) [Compound 3d, 2-(2′-methoxy-5′-pentylphenyl)-1,3,3-trimethylbicyclo[2.2.1]heptan-2-ol] | – | > 10000 nM | – | – |
| CCCCCCC(C)(C)c1cc(OC)c(C2(O)C3(C)CCC(C3)C2(C)C)c(OC)c1F (single isomer, unassigned) [Compound 4d, 2-(3′-fluoro-2,6′-dimethoxy-4′-(2″-methyloctan-2″-yl)phenyl)-1,3,3-trimethyl-bicyclo[2.2.1]heptan-2-ol] | 56.6 nM | > 10000 nM | agonist | pEC50 [3]: 6.98; E(max) % [3]: 118.7% |
| CCCCCCCCc1ccc(OC)c(C2(O)C3(C)CCC(C3)C2(C)C)c1 (single isomer, unassigned) [Compound 3g, 2-(2′-methoxy-5′-octylphenyl)-1,3,3-trimethylbicyclo[2.2.1]heptan-2-ol] | – | – | – | Ki [1]: > 10000 nM |
| CCC(C)(C)c1ccc(OC)c(C2(O)C3(C)CCC(C3)C2(C)C)c1 (single isomer, unassigned) [Compound 3e, 2-(2′-methoxy-5′-(tert-pentyl)phenyl)-1,3,3-trimethylbicyclo[2.2.1]heptan-2-ol] | – | – | – | Ki [1]: > 10000 nM |
| CCCc1ccc(OC)c(C2(O)C3(C)CCC(C3)C2(C)C)c1 (single isomer, unassigned) [Compound 3b, 2-(2′-methoxy-5′-propylphenyl)-1,3,3-trimethylbicyclo[2.2.1]heptan-2-ol] | – | > 10000 nM | – | – |
| CCCc1ccc(OC)c(C2(O)C3(C)CCC(C3)C2(C)C)c1 (single isomer, unassigned) [Compound 3a, 2-(2′-methoxy-5′-propylphenyl)-1,3,3-trimethylbicyclo[2.2.1]heptan-2-ol] | – | – | – | Ki [1]: > 10000 nM |
| CCCCCc1cc(OC)c(C2(O)C3(C)CCC(C3)C2(C)C)c(OC)c1F (single isomer, unassigned) [Compound 4a, 2-(3′-fluoro-2′,6′-dimethoxy-4′-pentylphenyl)-1,3,3-trimethylbicyclo[2.2.1]hept-an-2-ol] | – | – | – | pKi [1, 5]: < 5.00 |
| CCCCCCc1ccc(OC)c(C2(O)C3(C)CCC(C3)C2(C)C)c1OC (single isomer, unassigned) [Compound 2b, 2-(3′-hexyl-2,6′-dimethoxyphenyl)-1,3,3-trimethylbicyclo[2.2.1]heptan-2-ol] | 73.4 nM | – | weakly stimulated; also recorded: agonist | E(max) % [3]: 46.2%; pKi [1, 5]: < 5.00 |
| CCCCCc1cc(OC)c(C2(O)C3(C)CCC(C3)C2(C)C)c(OC)c1 (single isomer, unassigned) [Compound 1a, 2-(2,6′-dimethoxy-4′-pentylphenyl)-1,3,3-trimethylbicyclo[2.2.1]heptan-2-ol] | 47.7 nM | – | inverse agonist | pEC50 [3]: 5.80; E(max) % [3]: 24.08%; pIC50 ([3]; read-out: IC50, reduction of [35S]GTPγS binding in hCB2R membrane): 5.80; pKi [1, 5]: < 5.00; inhibition of [3H]CP-55,940 binding to mCB1R ([1]; in words): no measurable inhibition |
| CCCCCCC(C)(C)c1cc(OC)c([C@@H]2C=C(CO)[C@@H]3C[C@H]2C3(C)C)c(OC)c1 [HU-308, reference compound] | – | – | agonist | E(max) % [3]: 100%; pKi [1]: < 5.00 |
| CCCCCCCCc1ccc(OC)c(C2(O)C3(C)CCC(C3)C2(C)C)c1 (single isomer, unassigned) [Compound 3h, 2-(2′-methoxy-5′-octylphenyl)-1,3,3-trimethylbicyclo[2.2.1]heptan-2-ol] | – | > 10000 nM | – | – |
| CCCCCCC(C)(C)c1cc(O)c(C2(O)C3(C)CCC(C3)C2(C)C)c(OC)c1 (stereo not drawn) [Compound 5c, 2-(2′-hydroxy-6′-methoxy-4′-(2″-methyloctan-2″-yl)phenyl)-1,3,3-trimethyl-bicyclo[2.2.1]heptan-2-ol] | 107 nM | > 10000 nM | – | – |
| CCCCCc1cc(OC)c(C2(O)C3(C)CCC(C3)C2(C)C)c(OC)c1F (single isomer, unassigned) [Compound 4b, 2-(3′-fluoro-2′,6′-dimethoxy-4′-pentylphenyl)-1,3,3-trimethylbicyclo[2.2.1]hept-an-2-ol] | – | – | agonist | pEC50 [3]: 6.52; pKi [1, 5]: < 5.00 |
| COc1cc(C)cc(OC)c1C1(O)C2(C)CCC(C2)C1(C)C (single isomer, unassigned) [Compound 1f, 2-(2,6′-dimethoxy-4′-methylphenyl)-1,3,3-trimethylbicyclo[2.2.1]-heptan-2-ol] | – | > 10000 nM | – | Ki [2]: 233 nM |
| CCC(C)(C)c1ccc(OC)c(C2(O)C3(C)CCC(C3)C2(C)C)c1 (single isomer, unassigned) [Compound 3f, 2-(2′-methoxy-5′-(tert-pentyl)phenyl)-1,3,3-trimethylbicyclo[2.2.1]heptan-2-ol] | – | > 10000 nM | – | – |
| CCCCCCC(C)(C)c1cc(OC)c([C@@]2(O)C3(C)CCC(C3)C2(C)C)c(OC)c1 (stereo partly drawn) [Compound 1c, 2-(2,6′-dimethoxy-4′-(2″-methyloctan-2″-yl)phenyl)-1,3,3-trimethyl-bicyclo[2.2.1]heptan-2-ol] | 56.8 nM | > 10000 nM | agonist | pEC50 [3]: 6.92; E(max) % [3]: 87.15% |
